Experimental data as given in patent US12129490B2, “Methods for generating hepatocytes and cholangiocytes from pluripotent stem cells” (UNIVERSITY HEALTH NETWORK, priority 2018, dated 2024).
“And” between values parts separate entries of the source, which are not always exact repeats. Equal values may be shown once. Each block holds one compound with its values, some of them ahead of it.

Tests used:
CYP1A2 = target: T1, CYP1A2 (Homo sapiens, UniProt P05177); test: CYP1A2 activity, phenacetin metabolism by HPLC
T1 sequence (P05177 1-516): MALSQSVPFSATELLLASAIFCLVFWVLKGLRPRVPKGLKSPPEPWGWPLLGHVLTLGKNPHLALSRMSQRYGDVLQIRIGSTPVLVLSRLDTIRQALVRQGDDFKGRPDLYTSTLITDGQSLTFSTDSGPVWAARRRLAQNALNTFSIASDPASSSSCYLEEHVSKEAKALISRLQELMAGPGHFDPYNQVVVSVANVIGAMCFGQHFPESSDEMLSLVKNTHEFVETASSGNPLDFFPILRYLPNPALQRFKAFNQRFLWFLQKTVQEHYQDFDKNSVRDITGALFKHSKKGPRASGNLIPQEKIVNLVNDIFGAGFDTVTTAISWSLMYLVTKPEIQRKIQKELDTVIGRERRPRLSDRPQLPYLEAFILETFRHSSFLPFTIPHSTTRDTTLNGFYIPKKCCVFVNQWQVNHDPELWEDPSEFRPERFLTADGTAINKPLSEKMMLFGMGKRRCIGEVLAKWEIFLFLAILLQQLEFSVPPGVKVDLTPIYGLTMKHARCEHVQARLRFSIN

[1] = test system: hPSC-derived hepatoblast aggregates; test: Growth factor addition to hepatoblast aggregates co-cultured on OP9 stroma; assay type: cell-based, human; settings: for development of CK19+ clusters: OP9 co-culture
From the text: (§1) To investigate the effect of Notch signaling on cholangiocyte development, we co-cultured the hepatoblast population (day 25) with OP9 stromal cells that are known to express different Notch ligands including Jagged-1^4,5. […] To overcome this problem, we generated 3D aggregates from the day 25 monolayer cells and cultured them on the OP9 stromal cells.

day 44 aggregates = test: CYP expression in day 44 aggregates with Wnt and MEK/Erk inhibition plus cAMP agonist; assay type: cell-based, human; settings: together with cAMP, relative to adult liver
hepatic aggregates = test: Culture of hepatic aggregates at cAMP stage, HGF and OSM; assay type: cell-based, human
Description: The cell aggregates were cultured in HGF, Dex and OSM until day 32 at which point cAMP was added. […] In some experiments, HGF was also removed from the cultures when cAMP analog and/or cAMP agonist is added.

human and mouse ESC = settings: cited from earlier work
smad2 = settings: versus SB431 542; cited from earlier work
Notch pathway = test: Hepatoblast co-culture with OP9 in presence of Notch antagonist GSI; assay type: cell-based, human
Description: RT-qPCR-based expression analysis of ALB and CK19 in the hepatoblast-derived cells following co-culture with OP9 in media supplemented with HGF (20 ng/ml), EGF (50 ng/ml), and TGFβ1 (5 ng/ml) in the presence or absence of the gamma-secretase inhibitor (GSI), an antagonist of the Notch pathway. Cells were harvested and analyzed at days 30, 33, and 36 of culture.
FIG. 15B is an RT-qPCR based expression analysis of the Notch target genes HES1, HES5 and HEY1 in hepatoblast-derived cells following culture with or without OP9. Cells were assayed at day 36 of culture. […] This value was set as 1.
To investigate the differentiation of cholangiocyte-like cells, H9-derived day 27 hepatic progenitors were co-cultured with OP 9 cells (Notch signaling donor) in the presence of HGF 20 ng/ml and EGF 50 ng/ml. The H9-derived day 27 hepatic progenitors were derived as in Example 1. When the hepatic progenitor cells received Notch signaling activation from OP-9 cells, the albumin positive cells were completely diminished and turned into CK19 positive cells with an organized branching appearance (FIG. 10a, b).
as §1
(FIG. 22) Aggregates derived from both lines generated branched structures consisting of CK19^+ALB cells following co-culture with the OP9 stromal cells. As observed with the H9-derived populations, the downregulation of ALB expression and the development of these structures were NOTCH dependent events.

Notch signaling = test: 3D gel culture of chimeric hepatoblast/OP9 aggregates in presence of GSI; assay type: cell-based, human; settings: 3D collagen/Matrigel gel
Description: H9-derived day 25 hepatoblast were mixed (aggregated) with OP9 stromal cells at a ratio of 4:1, in low cluster culture dishes for 48 hours. The chimeric aggregates were embedded in a mixture of type 1 collagen (1.2 mg/ml) and Matrigel (40%) to establish a 3D gel culture. The cultures were maintained over 2 weeks in the media containing of HGF, EGF and TGFβ1 in the presence or absence of GSI.
FIG. 16C is an RT-qPCR based expression analyses of pooled structures that developed in the 3D gels. The cultures were harvested at day 44 and the cells analyzed for expression of genes indicative of the hepatocyte (ALB, AFP and CYP3A7) and cholangiocyte (CK19, Sox9 and CFTR) lineages.
To determine if the branching observed in the OP9 co-cultures is indicative of the initial stages of bile duct development, we next established a culture system to promote the growth of 3D cellular structures. With this approach, chimeric aggregates consisting of day 25 hESC-derived cells and OP9 stromal cells (GFP^+) were cultured in a media mixture consisting of 1.2 mg/ml collagen, 40% Matrigel and HGF, EGF and TGFβ1 (FIG. 23a). Within 2 weeks of culture in these conditions, the aggregates underwent dramatic morphological changes and formed either tubular structures, hollow cysts or a mixture of both (FIG. 16a,b). The cysts were the most abundant structures in these cultures (FIG. 16b). […] The cells in the ducts also expressed the Cystic fibrosis transmembrane conductance regulator (CFTR), a transmembrane channel that is first expressed in the adult biliary tract. As with ZO-1, the CFTR protein was detected predominantly on the apical side of the duct-like structure. Western blot analyses confirmed the presence of the protein in the population generated from the chimeric aggregates (FIG. 23D). […] The lack of hepatic markers, including ALB, AFP and CYP3A7 and the upregulation of expression the cholangiocyte markers CK19, SOX9 and CFTR in these structures was confirmed by RT-qPCR analyses (FIG. 16c). […]

[2] = OP9 co-culture with HGF, EGF, TGFβ1

- increase in CYP1A2 activity on induction (CYP1A2; 8-Br-cAMP-treated hESC-derived cells, induction 72 hours): 3.4 fold
- inducibility of CYP1A2 activity (CYP1A2; H9-derived cells): inducible
- inducibility of CYP1A2 activity (CYP1A2; cells not treated with 8-Br-cAMP): not inducible
- inducible CYP1A2 activity (CYP1A2; iPSC-derived cells): not detectable
- induction of CYP1A2 activity (CYP1A2; two independent primary hepatocyte samples): 18 fold and 9 fold
Compound: Cc1c(OCC(F)(F)F)ccnc1C[S+]([O-])c1nc2ccccc2[nH]1 (stereo not drawn) [lansoprazole]

Compound: TGFβ1: transforming growth factor beta 1
- development of CK19+ clusters [1]: increase in the size
- cholangiocyte branching ([1]; hepatoblasts co-cultured with OP9): promotes cholangiocyte branching

Compound: O=C(NOC[C@H](O)CO)c1ccc(F)c(F)c1Nc1ccc(I)cc1F [MEK/ErK inhibitor]
- levels of CYP3A4 expression (day 44 aggregates): comparable to those found in the adult liver

Compound: OSM: Oncostatin M
- induction of expression of Phase 1 CYP enzymes, in particular CYP 3A4 (hepatic aggregates; OSM maintained): inhibitory effect

Compound: O=C1Nc2cc(Br)ccc2/C1=C1/Nc2ccccc2/C1=N\O [BIO, 6-bromo-Indirubin-3′-Oxime]
- pluripotency of ESC (human and mouse ESC): maintain pluripotency

Compound: HGF: hepatocyte growth factor
- development of CK19+ clusters [1]: little effect
- survival of aggregates (hepatic aggregates; 10 ng/ml (reduced from 20 ng/ml) when cAMP was added): promote survival of the aggregates

Compound: Cc1cccc(-c2nn(C(=S)Nc3ccccc3)cc2-c2ccnc3ccccc23)n1 [A83-01]
- inhibition of smad2, relative potency (smad2): more potent

- expression of hepatocyte markers (ALB, AFP and CYP3A7) (Notch signaling; day 44): increase
Compound: CC(C)C[C@H](NC(=O)[C@H](Cc1ccccc1)C[C@@H](O)[C@H](Cc1ccccc1)NC(=O)OC(C)(C)C)C(=O)N[C@@H](Cc1ccccc1)C(N)=O [GSI]
- albumin and CK19 positive cells (Notch pathway; 10 μM, H9-derived day 27 progenitors with OP9, HGF 20 ng/ml, EGF 50 ng/ml): albumin and CK19 positive cells were found
- ALB expression (Notch pathway; [2]): blocked the downregulation
- development of branched structures (Notch pathway; [2]): inhibited
- proportion of CK19+ cells (Notch pathway; [2]): reduced
- increase in expression of Notch targets HES1, HES5 and HEY1 (Notch pathway; nine days of culture on OP9): block
- formation of duct-like structures and cysts (Notch signaling): prevented
- expression of genes associated with cholangiocyte development (CK19, Sox9 and CFTR) (Notch signaling; day 44): decrease
